Consider 7 molecules from patent publication US20040142888A1, “Modulators of RabGGT and methods of use thereof” (priority 2002, published 2004).

Broadly, the IC50 is the concentration at which inhibition is half-maximal. The term IC90 denotes the concentration needed for an effect of 90%.

Test [1] concerns HCT-116 human colon tumor cells. Kind of test: Compound-induced apoptosis in HCT-116 human colon tumor cells (microscopy for morphological markers). Format: cell-based. The protocol:
HCT-116 human colon tumor cells obtained from the American Type Culture Collection (ATCC) were grown in McCoy's 5A culture medium with 10% heat inactivated FBS, 1× penicillin/streptomycin, and 25 mM HEPES, in an incubator maintained at 37° C. with CO2 at 6-7% and humidity at 95%. Cells were treated with compounds using a dose range from 0.04 μM to 100 μM. After 48 hours they were examined by microscopy for signs of cell rounding, vaccuolation, and nuclear condensation. These are morphological markers associated with apoptosis, and are consistent with results obtained by performing an assay for nucleosomal DNA, or a TdT-mediated dUTP nick end labeling (TUNEL) assay.
The concentrations cited are the minimal concentration required to induce these morphological changes in 50% of the treated cells.

The next test deals with T1, rat RabGGT (Rattus norvegicus, UniProt Q08602+Q08603).
T1 construct: purchased Calbiochem 345855; host or cells: Sf9/baculovirus
T1 sequence (Q08602 1-567): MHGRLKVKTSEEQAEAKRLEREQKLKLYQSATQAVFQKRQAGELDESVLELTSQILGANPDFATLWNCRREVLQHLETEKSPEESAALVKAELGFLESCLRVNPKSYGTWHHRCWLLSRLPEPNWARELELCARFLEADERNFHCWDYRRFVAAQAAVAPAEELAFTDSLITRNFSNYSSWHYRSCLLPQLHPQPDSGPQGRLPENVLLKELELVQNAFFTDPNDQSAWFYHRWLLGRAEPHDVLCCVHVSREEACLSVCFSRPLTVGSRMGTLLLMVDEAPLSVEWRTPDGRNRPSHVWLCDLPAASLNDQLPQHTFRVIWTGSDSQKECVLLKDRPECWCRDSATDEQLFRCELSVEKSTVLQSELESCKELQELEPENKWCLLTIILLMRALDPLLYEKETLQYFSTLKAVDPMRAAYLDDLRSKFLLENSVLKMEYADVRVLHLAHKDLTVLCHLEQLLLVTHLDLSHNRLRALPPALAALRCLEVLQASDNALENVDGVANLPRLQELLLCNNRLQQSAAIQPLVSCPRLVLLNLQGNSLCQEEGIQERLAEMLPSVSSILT
T1 sequence (Q08603 1-331): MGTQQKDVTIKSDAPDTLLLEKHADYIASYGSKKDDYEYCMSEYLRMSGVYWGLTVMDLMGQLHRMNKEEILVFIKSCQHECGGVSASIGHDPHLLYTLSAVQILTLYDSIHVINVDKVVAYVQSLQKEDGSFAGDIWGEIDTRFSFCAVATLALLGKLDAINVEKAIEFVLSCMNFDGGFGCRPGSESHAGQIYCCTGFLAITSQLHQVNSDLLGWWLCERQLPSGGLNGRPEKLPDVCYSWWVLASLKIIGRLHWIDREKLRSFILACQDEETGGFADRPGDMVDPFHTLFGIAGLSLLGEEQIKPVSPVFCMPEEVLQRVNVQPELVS
Kind of test: RabGGT filter binding assay: transfer of (3H)geranylgeranyl from 3H-GGPP to recombinant Rab3A. The note with it: for IC90/IC50: RabGGT inhibition; for RabGGT inhibition: rat RabGGT enzyme. The class given is biochemical. The source says: The effect of compounds 7A through 7T on RabGGT activity was quantified using a filter binding assay that measures the transfer of (3H) geranylgeranyl groups (GG) from all-trans-(3H)geranylgeranyl pyrophosphate (3H-GGPP) to recombinant Rab3A protein (Shen & Seabra, 1996, JBC, 271 :3692; Armstrong et al., 1996, Methods in Enzymology 257:30). Modifications to published protocols are noted explicitly below.
Recombinant rat RabGGT, expressed using the Sf9/baculovirus system, was purchased from Calbiochem (cat. no. 345855). Recombinant unprenylated human Rab3A was obtained from Panvera.(cat. no. P2173). Human REβ-1, expressed in Sf9 cells, was obtained from Calbiochem (cat. no. 554000). Tritium labeled geranylgeranyl pyrophosphate was purchased from Amersham Pharmacia Biotech (15 Ci/mmol). Unlabeled GGPP was purchased from Sigma (cat. no. G-6025).
The reaction buffer contained 50 mM HEPES pH7.4, 5 mM MgCl2, 1 mM DTT, 1 mM Nβ-40. Solutions of RabGGT, Rab3A, REP-1, and GGPP were prepared in this reaction buffer. Final protein concentrations in the reaction mixture were modified from the published protocols, with the standard reaction mixture containing 2 μM Rab3A, 0.2 μM REP-1, 5 μM unlabeled GGPP, 0.5 μM labeled GGPP, and 10-50 nM RabGGT in a total volume of 20 μl. The specific activity of (3H)GGPP used in the assay was 3000 dpm/pmol.
Compounds were prepared as 50 mM stocks in DMSO and diluted to give an appropriate concentration for the assay as a 20% DMSO stock. 2 μl of the diluted compound stock was added to a 20 μl reaction to give a final DMSO concentration of 2% in the assay.
The order of addition of reagents was altered from the published protocols. Reaction mixtures were prepared by sequentially adding Rab3A and REP-1 proteins to the reaction buffer, followed by compound and RabGGT enzyme to a volume of 18 μl. Reactions were initiated by the addition of 2 μl of a solution that contained unlabeled and labeled GGPP. After a 30 minute incubation at 37° C., 1 ml of stop solution (1 volume of concentrated HCl acid with 9 volumes of ethanol) was added and mixed. The solution was then incubated at room temperature for 1 hour to completely precipitate proteins.
The precipitate was collected by vacuum filtration using a vacuum filtration manifold (Millipore model 1225) onto 25 mm GF/A filters (Whatman) that were prewetted with ethanol. The tubes were rinsed twice with 1 ml ethanol which was also poured over the filters. Each filter was subsequently washed three times with 2 mls of ethanol per wash, dried under vacuum, and then put in scintillation vials. Four milliliters of scintillation fluid was added and the radioactivity was quantified on a scintillation counter. Several types of blank reactions were conducted including withholding the enzyme, the substrate, or the accessory protein REP-1, or replacing the compound solution with a 20% DMSO solution. For the substrate titration experiment, the equimolar amounts of Rab3A and REP-1 were mixed and preincubated for 30 min at room temperature before addition of the enzyme.
The data was analyzed by non-linear regression analysis methods using the program PRIZM (GraphPad Software, Inc.). Inhibition constants were obtained by analyzing the data using the one site competition equation provided by the software. FIG. 7 presents a typical data series obtained for compound 7B using these methods.

Test [2] has as its target Farnesyl Transferase (FT) (Homo sapiens, UniProt P49354+P49356). Kind of test: Biochemical assay for inhibition of farnesyl transferase (FT). The protocol:
Biochemical assays for inhibition of FT were performed as described by Mann et al. (1995, Drug Dev. Res. 34: 121) with the modifications described by Ding et al. (1999, J. Med. Chem., 42:5241)

[3] abbreviates: HCT-116, 48 h, HCT116 cells, 48 hours, minimal concentration inducing apoptotic morphological changes in 50% of treated cells, read-out: 50% APOPTOTIC
The mark [4] stands for this setting: HCT-116, minimum concentration required to achieve apoptosis of 50% of the HCT116 cells (Table 7), read-out: HCT116 50% apoptosis.
[5] abbreviates: HCT-116, minimum concentration required to achieve apoptosis of 50% of the HCT116 cells (Table 8), read-out: HCT116 50% apoptosis.
[6] abbreviates: recombinant rat RabGGT, Rab3A, REP-1, 30 minute at 37° C.

Structures are written as SMILES. Like-named read-outs stand apart in the source and are kept apart here. A value given as a limit tells only on which side of the number the result lay.

For the molecule `Cn1cc(S(=O)(=O)N(Cc2ccsc2)C2Cc3cc(C#N)ccc3N(Cc3cncn3C)C2)cn1` (stereo not shown) [Compound 7N], the EC50 was 3700 nM in test [1] (setting [3]), 3300 nM in test [1] (setting [4]) and 3300 nM in test [1] (setting [5]). For the same molecule, the IC90/IC50 on rat RabGGT was 12. The IC50 at rat RabGGT (Table 7) worked out at 25 nM; at rat RabGGT (setting [6]), 25 nM; in test [2], 0.7 nM. For the same molecule, the IC90 amounted to 309 nM at rat RabGGT (setting [6]) and 9 nM in test [2].
On to `Cn1cncc1CN1CC(NS(=O)(=O)c2ccccn2)Cc2cc(C#N)ccc21` (stereo not shown) [Compound 7S], for which the EC50 in test [1] (setting [3]), in test [1] (setting [4]) and in test [1] (setting [5]) was 50000 nM each time. Also, the IC90/IC50 on rat RabGGT came to 19. The IC50 was found to be 73 nM at rat RabGGT (Table 7), 73 nM on rat RabGGT (setting [6]) and 15.5 nM in test [2]. Further, the IC90 at rat RabGGT (setting [6]) worked out at 1400 nM; in test [2] it was 255 nM.
Regarding `C=C(C)CN(C1Cc2cc(C#N)ccc2N(Cc2cncn2C)C1)S(=O)(=O)N1CC=CC1` (stereo not shown) [Compound 7O], the EC50 in test [1] (setting [3]), in test [1] (setting [4]) and in test [1] (setting [5]) was 10000 nM in each case. Further, on rat RabGGT, the IC90/IC50 is 19. For the same molecule, the IC50 was found to be 58 nM on rat RabGGT (Table 7), 58 nM on rat RabGGT (setting [6]) and 1.4 nM in test [2]. The IC90 at rat RabGGT (setting [6]) amounted to 1120 nM; in test [2], 8 nM.
Consider `Cn1cncc1CN1CC(N(Cc2ccsc2)S(=O)(=O)c2ccccn2)Cc2cc(C#N)ccc21` (stereo not shown) [Compound 7P], for which the EC50 in test [1] (setting [3]), in test [1] (setting [4]) and in test [1] (setting [5]) was 25000 nM each time. The IC50 is 84 nM on rat RabGGT (Table 7), 84 nM on rat RabGGT (setting [6]) and 0.7 nM in test [2]. Moreover, the IC90 was determined as 2160 nM on rat RabGGT (setting [6]) and 4 nM in test [2].
Turning to `Cn1cnc(S(=O)(=O)N(Cc2ccsc2)C2Cc3cc(C#N)ccc3N(Cc3cncn3C)C2)c1` (stereo not shown) [Compound 7Q], the EC50 in test [1] (setting [3]), in test [1] (setting [4]) and in test [1] (setting [5]) was 30000 nM throughout. Moreover, the IC50 worked out at 47 nM on rat RabGGT (Table 7), 47 nM on rat RabGGT (setting [6]) and 0.6 nM in test [2]. For the same molecule, the IC90 on rat RabGGT (setting [6]) came to 2300 nM; in test [2] it was 6 nM.
For the molecule `Cn1cncc1CN1CC(N(CC(=O)OC(C)(C)C)S(=O)(=O)c2ccccn2)Cc2cc(C#N)ccc21` (stereo not shown) [Compound 7R], the EC50 in test [1] (setting [3]), in test [1] (setting [4]) and in test [1] (setting [5]) was 30000 nM throughout. Besides, the IC90/IC50 at rat RabGGT is reported as 19. In addition, the IC50 was 541 nM at rat RabGGT (Table 7), 541 nM at rat RabGGT (setting [6]) and 1.5 nM in test [2]. Besides, the “RabGGT inhibition” value on rat RabGGT is on record as “weaker inhibitors”. Further, the IC90 came to 10100 nM at rat RabGGT (setting [6]) and 9 nM in test [2].
Turning to `Cc1nc(CN(C2Cc3cc(C#N)ccc3N(Cc3cncn3C)C2)S(=O)(=O)c2ccccn2)cs1` (stereo not shown) [Compound 7T], the EC50 in test [1] (setting [3]), in test [1] (setting [4]) and in test [1] (setting [5]) was 90000 nM in each case. Besides, the IC90/IC50 on rat RabGGT is recorded as greater than 10. In addition, the values for the IC50 (on rat RabGGT (Table 7); on rat RabGGT (setting [6]); in test [2]) were 1430 nM, 1430 nM and 3.7 nM, respectively. Further, the IC90 was greater than 15000 nM at rat RabGGT (Table 7), greater than 15000 nM on rat RabGGT (setting [6]) and 48 nM in test [2]. Moreover, the “RabGGT inhibition” value on rat RabGGT is reported as “weaker inhibitors”.
